pIC50, pKd: −log10 of the molar value.
Key:
[1] = system: progesterone receptor (T47D cells); experiment: Antagonist assay in T47D (human breast cancer) cells (Tables 1 and 2); format: cell-based; conditions: for Efficacy (% maximal response relative to RU-486), T47D cells: antagonist activity; for pIC50: concentration required to reduce the maximal response by 50%, read-out: Potency (IC50), T47D cells
From the text: The functional activities of the cyclocymopol analogues in the human breast cell line, T47D, were also investigated. T47D cells have proven to be a particularly useful model to investigate the molecular actions of sex steroids because they contain endogenous functional receptors for, and respond to, progestins, and their respective antagonists. […] In T47D cells, progestins induce de novo synthesis of a plasma-associated alkaline phosphatase, which has been reported to be similar, if not identical, to the alkaline phosphatase present in the normal breast and human milk. These tests were conducted according to the following illustrative example.
The assay was also run using T47D (human breast cancer) cells.

[2] = system: human progesterone receptor altered at the Tau-1 location; experiment: Co-transfection assay in CV-1 cells, progesterone receptor altered at Tau-1, antagonist activity; format: cell-based; conditions: for Efficacy (% maximal response relative to RU-486), CV-1 cells: antagonist activity; for pIC50: concentration required to reduce the maximal response by 50%, read-out: Potency (IC50), CV-1 cells
From the text: This assay is described in further detail in U.S. Pat. Nos. 4,981,784 and 5,071,773, which are incorporated herein by reference. The co-transfection assay provides a method for identifying functional ligands (either agonists which mimic, or antagonists which inhibit, the effect of hormones) for ligand-responsive receptor proteins.
The co-transfection assay provides a mechanism to evaluate ability of a compound to function as an agonist or antagonist of the activity modulated by an intracellular receptor. The co-transfection assay mimics an in vivo system in the laboratory. In the co-transfection assay, a cloned gene for an intracellular receptor is introduced by transfection (a procedure to induce cells to take up foreign genes) into a background cell substantially devoid of endogenous intracellular receptors. This introduced gene directs the recipient cells to make the intracellular receptor protein. A second gene is also introduced (co-transfected) into the same cells in conjunction with the intracellular receptor gene. This second gene functions as a reporter for the transcription-modulating activity of the target intracellular receptor. The reporter acts as a surrogate for the products normally expressed by a gene under control of the target receptor and its natural hormone.
A preferred reporter gene is one which expresses the firefly enzyme luciferase. The co-transfection assay can detect small molecule agonists or antagonists of target intracellular receptors. Exposing the cells to an agonist ligand increases reporter activity in the transfected cells that can be conveniently measured, reflecting ligand-dependent, intracellular receptor-mediated increases in reporter transcription. To detect antagonists, the co-transfection assay is carried out in the presence of a constant concentration of an agonist known to induce a defined reporter signal. Increasing concentrations of a test antagonist will decrease the reporter signal. The co-transfection assay is therefore useful to detect both agonists and antagonists of specific intracellular receptors. It determines not only whether a compound interacts with a particular intracellular receptor, but also whether this interaction mimics (agonizes) or blocks (antagonizes) the effects of the natural regulatory molecules on target gene expression.
Co-transfected cells are exposed to a medium to which is added the potential ligand that is being evaluated. If the candidate ligand diffuses into the cell and binds to the receptor and the resulting complex functions as an agonist, it binds to the co-transfected reporter gene and initiates transcription. When that gene is one that expresses, for example, luciferase, luciferase is produced which catalyzes a light-emitting reaction with its substrate luciferin. Thus, after cell lysis and the introduction of luciferin, the amount of light produced relative to the concentration of candidate ligand used in the assay provides a measure of the potency and efficacy of the compound tested. Antagonist activity is evaluated by adding the candidate ligand and a known agonist to the co-transfected cells.
The receptor cDNA was introduced in a mammalian expression vector under the control of the Rous Sarcoma virus LTR. […] A reporter vector was also transfected, containing a firefly luciferase gene under the control of the hormone-responsive promoter. […] The level of luciferase activity was then measured in cell extracts. Light emission is directly proportional to the effectiveness of the hormone-receptor complex in activating gene expression.
A total of three replicates per concentration point were tested for each compound, and the EC50 was calculated for each positive response. Both agonist and antagonist activity for each test compound was determined in parallel. […]

[3] = molecular target: T1, human progesterone receptor (Homo sapiens, UniProt P06401); experiment: Progesterone receptor binding (displacement of 3H-progesterone, whole cell extract of transfected CV-1 cells); design: expressed in transfected cells; host or cells: CV-1 cells (calcium phosphate transfection), whole cell extract
T1 sequence (P06401 1-933): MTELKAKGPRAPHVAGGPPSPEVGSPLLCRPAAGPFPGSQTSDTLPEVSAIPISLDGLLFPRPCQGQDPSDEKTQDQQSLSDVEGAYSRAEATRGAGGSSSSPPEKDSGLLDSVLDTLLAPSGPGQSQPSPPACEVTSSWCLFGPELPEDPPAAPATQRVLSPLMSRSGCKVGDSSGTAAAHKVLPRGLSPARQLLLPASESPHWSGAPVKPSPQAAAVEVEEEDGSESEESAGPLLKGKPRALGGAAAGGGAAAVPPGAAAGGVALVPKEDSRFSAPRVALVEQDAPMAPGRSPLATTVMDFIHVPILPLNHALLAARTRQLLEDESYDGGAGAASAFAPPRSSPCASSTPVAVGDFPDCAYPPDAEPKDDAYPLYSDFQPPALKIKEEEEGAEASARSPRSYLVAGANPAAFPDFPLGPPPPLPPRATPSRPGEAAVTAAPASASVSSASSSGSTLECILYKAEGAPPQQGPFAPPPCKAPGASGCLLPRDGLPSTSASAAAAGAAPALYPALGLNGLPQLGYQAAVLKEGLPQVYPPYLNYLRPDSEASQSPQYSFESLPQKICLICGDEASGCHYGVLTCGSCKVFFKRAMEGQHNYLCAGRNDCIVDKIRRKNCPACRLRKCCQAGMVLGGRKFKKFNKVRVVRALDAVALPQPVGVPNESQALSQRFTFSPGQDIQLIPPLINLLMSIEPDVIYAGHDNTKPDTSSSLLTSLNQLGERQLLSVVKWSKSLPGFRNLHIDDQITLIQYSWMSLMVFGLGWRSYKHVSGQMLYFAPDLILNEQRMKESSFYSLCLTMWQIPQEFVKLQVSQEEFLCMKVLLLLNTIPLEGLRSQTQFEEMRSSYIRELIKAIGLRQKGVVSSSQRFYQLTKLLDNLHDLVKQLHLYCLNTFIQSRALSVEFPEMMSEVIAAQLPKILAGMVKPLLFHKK
Method: These tests were conducted according to the following illustrative example.
CO2 for 40 hours prior to harvest.
After incubation, cells were harvested and washed in phosphate buffered saline. Whole cell receptor extract was prepared by homogenizing the harvested cells in Tris-HCl buffer, pH=7.4, containing 30% glycerol, 1 mM EDTA, 12 mM monothioglycerol, 1 mM PMSF, and 0.5M potassium chloride. The homogenate was incubated at 4° C. for 60 min with resuspension every 10 min. The suspension was centrifuged (105,000×g, 60 min) and the supernatant was collected and flash frozen in liquid nitrogen and stored frozen at -70° C.
To a […] final volume incubation mixture, […] of 7.5% (w/v) dextran-coated charcoal suspension in gelatin phosphate buffer was added. The mixture was vortexed and incubated at 4° C. for 10 min and then centrifuged at 3000 rpm for 10 min. The amount of bound tritiated hormone was determined by liquid scintillation spectrophotometry of an aliquot of the supernatant. […]

| pIC50 [1] | pIC50 [2] | pKd [3] | SMILES | Efficacy (% maximal response relative to RU-486), T47D cells [1] [%] | Efficacy (% maximal response relative to RU-486), CV-1 cells [2] [%] |
| --- | --- | --- | --- | --- | --- |
| 6.42 | 5.54 | 6.44 | C=C1C[C@H](CCC2OCCO2)CC(C)(C)[C@@H]1Cc1cc(OC)c(Br)cc1O (relative stereo) [W, cis-1-Methylidene-2-(2'-hydroxy-4'-bromo-5'-methoxyphenyl)methyl-3,3-dimethyl-5-(propanal-1,3-dioxolane)cyclohexane] | 85 | 85 |
| 6.68 | 5.96 | 6.42 | C=C1C[C@H](CCCO)CC(C)(C)[C@@H]1Cc1cc(OC)c(Br)cc1O (relative stereo) [X, cis-1-Methylidene-2-(2'-hydroxy-4'-bromo-5'-methoxyphenyl)methyl-3,3-dimethyl-5-(3-hydroxypropyl)cyclohexane] | 84 | 99 |
| 7.07 | 6.40 | 7.46 | C=C1CCCC(C)(C)C1Cc1cc(OC)c(Br)cc1OC(C)=O (stereo in doubt) [B, (3S)-1-Debromocyclocymopol monomethyl ether, acetate] | 65 | 45 |
| 6.82 | 6.35 | 7.30 | C=C1CCCC(C)(C)C1Cc1cc(OC)c(Br)cc1OC(=O)OC (stereo in doubt) [Compound D, (3S)-1-Debromocyclocymopol monomethyl ether, methyl carbonate] | 55 | 45 |
| 6.60 | 5.91 | 6.64 | C=C1CCCC(C)(C)C1Cc1cc(OC)c(Br)cc1OC(=O)OC (stereo in doubt) [R, (3R)-1-Debromocyclocymopol monomethyl ether, methyl carbonate] | 85 | 95 |
| 6.52 | 5.80 | 6.72 | C=C1CCCC(C)(C)C1Cc1cc(OC)c(Br)cc1OC(=O)c1ccccc1 (stereo in doubt) [U, (3R)-1-Debromocyclocymopol monomethyl ether, benzoate] | 80 | 95 |
| 6.40 | 5.82 | 6.46 | C=C1CCCCC1Cc1cc(OC)c(Br)cc1O (stereo not shown) [Compound S, 1-Methylidene-2-(2'-hydroxy-4'-bromo-5'-methoxyphenyl)methylcyclohexane] | 85 | 90 |
| 6.32 | 6.35 | 6.03 | C=C1[C@H](O)C[C@@H](Br)C(C)(C)[C@@H]1Cc1cc(OC)c(Br)cc1O [E, (3R,5R)-5-Hydroxycyclocymopol monomethyl ether] | 85 | 85 |
| 6.70 | 6.26 | 6.03 | O=C1CCCCC1Cc1ccc([N+](=O)[O-])cc1 (stereo not shown) [F, 2-(4'-Nitrophenyl)methylcyclohexan-1-one] | 80 | 100 |
| 6.46 | 6.06 | 7.12 | C=C1C=CCC(C)(C)C1Cc1ccc([N+](=O)[O-])c(C)c1 (stereo not shown) [M, 1-Methylidene-6-(3'-methyl-4'-nitrophenyl)methyl-5,5-dimethylcyclohex-2-ene] | 80 | 90 |
| 6.41 | 5.75 | 5.00 | CC1(C)CC=CC(=O)C1Cc1ccc([N+](=O)[O-])cc1 (stereo not shown) [MM, 6-(4'-Nitrophenyl)methyl-5.5-dimethylcyclohex-2-en-1-one] | 90 | 74 |

| SMILES | pIC50 [1] | pIC50 [2] | pKd [3] | Efficacy (% maximal response relative to RU-486), T47D cells [1] [%] | Efficacy (% maximal response relative to RU-486), CV-1 cells [2] [%] |
| --- | --- | --- | --- | --- | --- |
| COc1cc(CC2C(C)(C)CC(C)=CC23CC3)c(OC(C)=O)cc1Br (stereo not shown) [DD, 8-(2'-Acetoxy-4'-bromo-5'-methoxyphenyl)methyl-5,7,7-trimethylspiro[2.5]oct-4-ene] | 6.36 | 6.80 | 6.98 | 68 | 26 |
| C=C1C=C(C)CC(C)(C)C1Cc1cc(OC)c(Br)cc1OC(C)=O (stereo not shown) [H, 1-Methylidene-6-(2'-acetoxy-4'-bromo-5'-methoxyphenyl)methyl-3,5,5-trimethylcyclohex-2-ene] | 6.11 | 6.15 | 7.22 | 60 | 40 |
| C=C1C=CCC(C)(C)C1Cc1cc(OC)c(Br)cc1OC(C)=O (stereo not shown) [L, 1-Methylidene-6-(2'-acetoxy-4'-bromo-5'-methoxyphenyl)methyl-5,5-dimethylcyclohex-2-ene] | 6.70 | 6.08 | 7.05 | 75 | 55 |
